In ChEMBL document CHEMBL2176970, “Discovery and optimization of a series of 3-(3-phenyl-3H-imidazo[4,5-b]pyridin-2-yl)pyridin-2-amines: orally bioavailable, selective, and potent ATP-independent Akt inhibitors” (J Med Chem, 2012):

Assays:
[1] = molecular target: Protein kinase C gamma type (Homo sapiens) (UniProt P05129); assay: Inhibition of PKCgamma using fluorescent labelled substrate at 5 uM by caliper method
[2] = molecular target: Ribosomal protein S6 kinase alpha-2 (Homo sapiens) (UniProt Q15349); assay: Inhibition of RSK3 using fluorescent labelled substrate at 5 uM by caliper method
Cytochrome P450 2C9 = Cytochrome P450 2C9 (Homo sapiens, UniProt P11712); assay: Inhibition of CYP2C9 in human liver microsomes using tolbutamide as substrate after 10 mins; assay type: ADME, Microsome
[3] = molecular target: Protein kinase C beta type (Homo sapiens) (UniProt P05771); assay: Inhibition of PKCbeta1 using fluorescent labelled substrate at 5 uM by caliper method
[4] = molecular target: Protein kinase C theta type (Homo sapiens) (UniProt Q04759); assay: Inhibition of PKCtheta using fluorescent labelled substrate at 5 uM by caliper method
[5] = molecular target: Ribosomal protein S6 kinase alpha-4 (Homo sapiens) (UniProt O75676); assay: Inhibition of MSK2 using fluorescent labelled substrate at 5 uM by caliper method
[6] = molecular target: Cyclin-dependent kinase 5/CDK5 activator 1 (Homo sapiens) (UniProt Q00535+Q15078); assay: Inhibition of CDK5/p35 using fluorescent labelled substrate at 5 uM by caliper method; assay type: protein-complex assay
[7] = Inhibition of PKA using fluorescent labelled substrate at 5 uM by caliper method
[8] = molecular target: Ribosomal protein S6 kinase alpha-3 (Homo sapiens) (UniProt P51812); assay: Inhibition of RSK2 using fluorescent labelled substrate at 5 uM by caliper method
[9] = molecular target: Cyclin-dependent kinase 1/cyclin B1 (Homo sapiens) (UniProt P06493+P14635); assay: Inhibition of CDK1/cyclinB using fluorescent labelled substrate at 5 uM by caliper method; assay type: protein-complex assay
[10] = molecular target: RAC-alpha serine/threonine-protein kinase (Homo sapiens, UniProt P31749); assay: Inhibition of Akt1 in human A2780 cells assessed as phosphorylation of Akt at S473 after 2 hrs by Western Blot analysis; assay type: cell-based
A2780 = assay: Antiproliferative activity against human A2780 cells after 72 hrs by MTS assay; assay type: functional, cell-based; details: A2780, 72 h
Cytochrome P450 2C8 = molecular target: T1, Cytochrome P450 2C8 (Homo sapiens, UniProt P10632); assay: Inhibition of CYP2C8 in human liver microsomes using paclitaxel as substrate after 10 mins; assay type: ADME, Microsome
T1 sequence (P10632 whole entry): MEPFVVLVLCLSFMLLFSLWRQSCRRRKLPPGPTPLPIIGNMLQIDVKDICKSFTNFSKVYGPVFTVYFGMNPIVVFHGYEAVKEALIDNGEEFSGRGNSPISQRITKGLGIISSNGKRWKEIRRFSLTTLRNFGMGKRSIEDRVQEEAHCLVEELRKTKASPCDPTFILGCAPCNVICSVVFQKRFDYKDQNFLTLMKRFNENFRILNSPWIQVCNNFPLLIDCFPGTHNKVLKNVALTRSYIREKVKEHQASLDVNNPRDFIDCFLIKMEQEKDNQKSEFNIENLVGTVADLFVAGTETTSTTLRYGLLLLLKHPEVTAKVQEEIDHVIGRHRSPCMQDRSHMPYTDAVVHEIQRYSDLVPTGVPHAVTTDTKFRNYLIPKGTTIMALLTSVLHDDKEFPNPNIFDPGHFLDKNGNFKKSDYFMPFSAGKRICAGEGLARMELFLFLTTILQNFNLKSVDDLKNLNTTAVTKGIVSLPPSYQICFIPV

[11] = molecular target: 3-phosphoinositide-dependent protein kinase 1 (Homo sapiens) (UniProt O15530); assay: Inhibition of PDK1 using fluorescent labelled substrate at 5 uM by caliper method
[12] = Half life in male CD1 mouse liver microsomes at 1 uM by LC/MS/MS; assay type: ADME, Microsome
[13] = molecular target: MAP kinase-activated protein kinase 2 (Homo sapiens) (UniProt P49137); assay: Inhibition of MAPKAPK2 using fluorescent labelled substrate at 5 uM by caliper method
[14] = molecular target: Ribosomal protein S6 kinase alpha-1 (Homo sapiens) (UniProt Q15418); assay: Inhibition of RSK1 using fluorescent labelled substrate at 5 uM by caliper method
[15] = Half life in human liver microsomes at 1 uM by LC/MS/MS; assay type: ADME, Microsome
[16] = molecular target: Mitogen-activated protein kinase 3 (Homo sapiens) (UniProt P27361); assay: Inhibition of MAPK3 using fluorescent labelled substrate at 5 uM by caliper method
[17] = molecular target: Ribosomal protein S6 kinase alpha-6 (Homo sapiens) (UniProt Q9UK32); assay: Inhibition of RSK4 using fluorescent labelled substrate at 5 uM by caliper method
[18] = molecular target: RAC-beta serine/threonine-protein kinase (Homo sapiens, UniProt P31751); assay: Inhibition of Akt2 (1 to 481) expressed in Sf9 cells using biotin-GRPRTSSFAEG as substrate after 20 mins by Alpha-screen assay
[19] = molecular target: Serine/threonine-protein kinase Sgk2 (Homo sapiens) (UniProt Q9HBY8); assay: Inhibition of SGK2 using fluorescent labelled substrate at 5 uM by caliper method
[20] = molecular target: Macrophage colony-stimulating factor 1 receptor (Homo sapiens) (UniProt P07333); assay: Inhibition of FMS using fluorescent labelled substrate at 5 uM by caliper method
[21] = molecular target: Protein kinase C eta type (Homo sapiens) (UniProt P24723); assay: Inhibition of PKCeta using fluorescent labelled substrate at 5 uM by caliper method
[22] = molecular target: RAC-gamma serine/threonine-protein kinase (Homo sapiens, UniProt Q9Y243); assay: Inhibition of Akt3 (1 to 479) expressed in Sf9 cells using biotin-GRPRTSSFAEG as substrate after 20 mins by Alpha-screen assay
Cytochrome P450 2D6 = Cytochrome P450 2D6 (Homo sapiens, UniProt P10635); assay: Inhibition of CYP2D6 in human liver microsomes using bufuralol as substrate after 10 mins; assay type: ADME, Microsome
Cytochrome P450 1A2 = molecular target: T2, Cytochrome P450 1A2 (Homo sapiens, UniProt P05177); assay: Inhibition of CYP1A2 in human liver microsomes using phenacetin as substrate after 10 mins; assay type: ADME, Microsome
T2 sequence (P05177 whole entry): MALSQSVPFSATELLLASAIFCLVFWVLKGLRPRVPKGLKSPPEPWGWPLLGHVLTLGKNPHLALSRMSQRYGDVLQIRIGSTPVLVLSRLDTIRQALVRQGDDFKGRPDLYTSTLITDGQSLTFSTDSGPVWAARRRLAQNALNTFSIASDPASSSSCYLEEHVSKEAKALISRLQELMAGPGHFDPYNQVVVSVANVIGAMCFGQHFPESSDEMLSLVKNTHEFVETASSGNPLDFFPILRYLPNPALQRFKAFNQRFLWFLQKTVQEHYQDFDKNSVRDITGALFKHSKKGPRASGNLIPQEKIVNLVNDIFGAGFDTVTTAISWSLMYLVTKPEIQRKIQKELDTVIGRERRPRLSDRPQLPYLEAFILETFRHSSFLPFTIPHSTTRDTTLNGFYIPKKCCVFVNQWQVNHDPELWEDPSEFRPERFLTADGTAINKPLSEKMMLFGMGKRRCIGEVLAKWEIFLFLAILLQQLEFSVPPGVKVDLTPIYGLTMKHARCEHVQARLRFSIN

Chain of RAC-beta serine/threonine-protein kinase (P31751 whole entry): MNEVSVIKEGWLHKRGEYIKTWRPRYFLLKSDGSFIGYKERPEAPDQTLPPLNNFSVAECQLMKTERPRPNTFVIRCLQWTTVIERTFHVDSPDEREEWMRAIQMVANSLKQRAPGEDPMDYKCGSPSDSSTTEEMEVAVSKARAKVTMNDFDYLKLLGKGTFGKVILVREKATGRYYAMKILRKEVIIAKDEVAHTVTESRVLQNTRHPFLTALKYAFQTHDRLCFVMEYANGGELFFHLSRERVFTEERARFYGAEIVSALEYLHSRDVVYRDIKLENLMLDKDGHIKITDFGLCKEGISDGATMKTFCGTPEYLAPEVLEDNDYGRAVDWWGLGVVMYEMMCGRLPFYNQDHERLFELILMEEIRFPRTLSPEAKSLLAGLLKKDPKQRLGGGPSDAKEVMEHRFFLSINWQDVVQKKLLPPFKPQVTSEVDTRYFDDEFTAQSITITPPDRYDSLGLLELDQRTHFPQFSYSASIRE
Chain of Mitogen-activated protein kinase 3 (Homo sapiens) (P27361 whole entry): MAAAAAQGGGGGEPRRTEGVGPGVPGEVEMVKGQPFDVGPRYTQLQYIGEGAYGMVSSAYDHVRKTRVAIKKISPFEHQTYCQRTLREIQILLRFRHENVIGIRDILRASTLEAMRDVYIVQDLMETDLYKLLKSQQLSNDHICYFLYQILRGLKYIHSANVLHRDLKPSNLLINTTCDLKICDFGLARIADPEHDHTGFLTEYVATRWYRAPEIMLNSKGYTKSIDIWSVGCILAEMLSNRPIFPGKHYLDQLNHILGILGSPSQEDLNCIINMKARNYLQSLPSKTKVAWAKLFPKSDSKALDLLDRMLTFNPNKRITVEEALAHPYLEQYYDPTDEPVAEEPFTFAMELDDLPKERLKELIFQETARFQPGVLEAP
Chain of Ribosomal protein S6 kinase alpha-4 (Homo sapiens) (O75676 whole entry, looked up): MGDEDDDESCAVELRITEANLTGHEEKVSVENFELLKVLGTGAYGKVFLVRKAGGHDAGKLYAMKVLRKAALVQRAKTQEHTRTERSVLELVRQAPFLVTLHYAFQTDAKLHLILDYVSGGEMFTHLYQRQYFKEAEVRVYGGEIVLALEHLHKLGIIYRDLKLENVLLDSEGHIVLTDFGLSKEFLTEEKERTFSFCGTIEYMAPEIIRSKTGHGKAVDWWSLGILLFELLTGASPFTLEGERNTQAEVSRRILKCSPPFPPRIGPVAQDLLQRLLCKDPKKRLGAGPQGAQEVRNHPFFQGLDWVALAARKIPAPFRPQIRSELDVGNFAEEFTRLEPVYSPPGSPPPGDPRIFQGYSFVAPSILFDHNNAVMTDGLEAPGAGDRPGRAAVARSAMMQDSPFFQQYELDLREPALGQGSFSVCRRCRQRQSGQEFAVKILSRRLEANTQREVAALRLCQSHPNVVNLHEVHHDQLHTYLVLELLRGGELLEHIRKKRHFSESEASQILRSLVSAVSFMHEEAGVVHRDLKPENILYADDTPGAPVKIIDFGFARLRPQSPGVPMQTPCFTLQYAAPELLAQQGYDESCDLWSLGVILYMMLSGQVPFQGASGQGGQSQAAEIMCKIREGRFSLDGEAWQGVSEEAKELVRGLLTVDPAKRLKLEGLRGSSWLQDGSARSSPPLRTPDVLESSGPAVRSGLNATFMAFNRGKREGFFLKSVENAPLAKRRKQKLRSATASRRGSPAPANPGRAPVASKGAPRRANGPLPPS
Chain of Serine/threonine-protein kinase Sgk2 (Homo sapiens) (Q9HBY8 whole entry): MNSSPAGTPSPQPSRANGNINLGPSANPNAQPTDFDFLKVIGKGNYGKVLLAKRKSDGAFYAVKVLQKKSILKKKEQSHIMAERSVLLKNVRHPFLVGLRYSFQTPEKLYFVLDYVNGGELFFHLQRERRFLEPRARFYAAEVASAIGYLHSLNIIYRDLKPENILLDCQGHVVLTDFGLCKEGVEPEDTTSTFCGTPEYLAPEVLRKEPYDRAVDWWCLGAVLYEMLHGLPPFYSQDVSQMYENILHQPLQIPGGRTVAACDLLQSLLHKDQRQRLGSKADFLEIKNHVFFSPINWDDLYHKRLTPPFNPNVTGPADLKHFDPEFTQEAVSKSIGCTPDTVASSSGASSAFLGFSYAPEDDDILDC
Chain of Macrophage colony-stimulating factor 1 receptor (Homo sapiens) (P07333 whole entry): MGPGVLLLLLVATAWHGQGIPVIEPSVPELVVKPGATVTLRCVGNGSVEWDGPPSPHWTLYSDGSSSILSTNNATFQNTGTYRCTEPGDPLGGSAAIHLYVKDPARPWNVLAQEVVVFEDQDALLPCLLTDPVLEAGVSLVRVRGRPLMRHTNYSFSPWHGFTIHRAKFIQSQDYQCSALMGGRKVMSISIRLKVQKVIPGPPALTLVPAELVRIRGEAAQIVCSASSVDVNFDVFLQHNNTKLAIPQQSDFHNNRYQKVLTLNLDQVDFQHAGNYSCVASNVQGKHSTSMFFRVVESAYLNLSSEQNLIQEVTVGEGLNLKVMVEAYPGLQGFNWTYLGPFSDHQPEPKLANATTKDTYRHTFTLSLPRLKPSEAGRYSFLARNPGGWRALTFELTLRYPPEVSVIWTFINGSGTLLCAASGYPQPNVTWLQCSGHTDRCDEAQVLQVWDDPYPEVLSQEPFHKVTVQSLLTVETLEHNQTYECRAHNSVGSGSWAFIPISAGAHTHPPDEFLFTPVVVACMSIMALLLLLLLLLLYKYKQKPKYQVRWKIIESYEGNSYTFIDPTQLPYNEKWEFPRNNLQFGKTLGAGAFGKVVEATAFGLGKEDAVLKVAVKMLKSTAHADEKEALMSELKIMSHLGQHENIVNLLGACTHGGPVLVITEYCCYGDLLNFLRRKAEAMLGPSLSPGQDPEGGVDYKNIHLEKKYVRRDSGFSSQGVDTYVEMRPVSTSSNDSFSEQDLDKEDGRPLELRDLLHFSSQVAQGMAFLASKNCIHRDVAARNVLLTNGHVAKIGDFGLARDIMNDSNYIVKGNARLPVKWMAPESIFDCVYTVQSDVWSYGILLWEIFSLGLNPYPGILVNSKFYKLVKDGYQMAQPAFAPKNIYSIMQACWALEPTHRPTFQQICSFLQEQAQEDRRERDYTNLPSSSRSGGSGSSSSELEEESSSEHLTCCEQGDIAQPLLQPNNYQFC
Chain of Cytochrome P450 2C9 (P11712 whole entry): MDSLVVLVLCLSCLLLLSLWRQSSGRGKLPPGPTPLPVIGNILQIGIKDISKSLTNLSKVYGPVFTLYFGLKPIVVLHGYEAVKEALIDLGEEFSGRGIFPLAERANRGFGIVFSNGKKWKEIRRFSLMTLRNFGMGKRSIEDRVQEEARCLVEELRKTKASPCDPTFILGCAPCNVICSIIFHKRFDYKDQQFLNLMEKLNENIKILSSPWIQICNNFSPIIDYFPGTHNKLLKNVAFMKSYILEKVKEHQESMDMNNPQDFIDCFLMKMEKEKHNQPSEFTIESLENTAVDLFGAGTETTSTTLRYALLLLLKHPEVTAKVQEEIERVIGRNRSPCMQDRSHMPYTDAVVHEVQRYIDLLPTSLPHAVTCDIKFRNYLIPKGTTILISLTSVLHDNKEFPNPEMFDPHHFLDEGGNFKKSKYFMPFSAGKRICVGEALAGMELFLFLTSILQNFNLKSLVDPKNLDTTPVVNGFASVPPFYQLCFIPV
Chain of MAP kinase-activated protein kinase 2 (Homo sapiens) (P49137 whole entry, looked up): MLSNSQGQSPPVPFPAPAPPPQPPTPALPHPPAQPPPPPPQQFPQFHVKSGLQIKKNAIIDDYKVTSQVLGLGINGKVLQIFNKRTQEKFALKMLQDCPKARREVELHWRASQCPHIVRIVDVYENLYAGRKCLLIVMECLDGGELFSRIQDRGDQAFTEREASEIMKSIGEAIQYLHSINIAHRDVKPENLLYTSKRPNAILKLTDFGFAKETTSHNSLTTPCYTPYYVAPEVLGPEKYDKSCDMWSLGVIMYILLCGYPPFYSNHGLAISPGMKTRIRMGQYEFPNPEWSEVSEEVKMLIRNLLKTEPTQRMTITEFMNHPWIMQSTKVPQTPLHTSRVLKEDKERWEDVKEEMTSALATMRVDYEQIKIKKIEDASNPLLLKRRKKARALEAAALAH

Structure (SMILES)	inhibition [1] [%]	inhibition [2] [%]	IC50 (Cytochrome P450 2C9) [µM]	inhibition [3] [%]	inhibition [4] [%]	inhibition [5] [%]	inhibition [6] [%]	inhibition [7] [%]	inhibition [8] [%]	inhibition [9] [%]	IC50 [10] [µM]	IC50 (A2780) [µM]	IC50 (Cytochrome P450 2C8) [µM]	inhibition [11] [%]	half-life at 1 µM [12] [h]	inhibition [13] [%]	inhibition [14] [%]	half-life at 1 µM [15] [h]	inhibition [16] [%]	inhibition [17] [%]	further results
Nc1ncccc1-c1nc2cccnc2n1-c1ccc(CC(=O)Nc2ccccc2)cc1	> 25	> 25	> 10	> 25	> 25	> 25	> 25	> 25	> 25	> 25	0.21	57	> 10	> 25	> 1	> 25	> 25	0.793	> 25	> 25	IC50 [18]: 0.7 µM; inhibition [19]: > 25%; inhibition [20]: > 25%; inhibition [21]: > 25%; IC50 [22]: 22 µM; IC50 (Cytochrome P450 2D6): > 10 µM; IC50 (Cytochrome P450 1A2): > 10 µM
Nc1ncccc1-c1nc2cccnc2n1-c1ccc(CNC(=O)c2ccccc2)cc1	> 25	> 25	> 10	> 25	> 25	> 25	> 25	> 25	> 25	> 25	0.41	> 100	> 10	> 25	> 1	> 25	> 25	1	> 25	> 25	IC50 [18]: 0.66 µM; inhibition [19]: > 25%; inhibition [20]: > 25%; inhibition [21]: > 25%; IC50 [22]: 24 µM; IC50 (Cytochrome P450 2D6): > 10 µM; IC50 (Cytochrome P450 1A2): > 10 µM
